Experimental data as given in ChEMBL document CHEMBL3885861, “Open TG-GATES”.

Species: Rattus norvegicus
Assay: Open TG-GATES - Regimen: Single
Assay type: toxicity, organism-based, Sprague-Dawley
Parameters: regimen Single, gender Male, age 6 weeks
Settings: in vivo, po, route gavage; for Bas / Eos / Lym / MCHC / MCV / Mono / Neu / RBC / Ret / WBC: tissue Blood; for KIDNEY_L / KIDNEY_R / KIDNEY_TOTAL: tissue Kidney; for LIVER: tissue Liver; for ALP / AST / CRE / DBIL / GLC / IP / K / LDH / Na / PL / RALB / TBIL / TC / TP / gamma-GTP: tissue Plasma
[1] = 0 mg/kg, 3 h, dose level Control
[2] = 0 mg/kg, 6 h, dose level Control
[3] = 0 mg/kg, 9 h, dose level Control
[4] = 0 mg/kg, 24 h, dose level Control

## CS(=O)(=O)O.Cc1ccc(NC(=O)c2ccc(CN3CCN(C)CC3)cc2)cc1Nc1nccc(-c2cccnc2)n1 [IMATINIB MESYLATE]
[1]
  Bas: 0%
  Eos: 0.6%
  Lym: 77.4%
  MCHC: 32.7%
  MCV: 64.2 fL
  Mono: 3%
  Neu: 18.6%
  RBC: 606.4 x10_4/ul
  Ret: 9.4%
  WBC: 98.6 x10_2/uL
  KIDNEY_L: 0.9 g
  KIDNEY_R: 0.9 g
  KIDNEY_TOTAL: 1.7 g
  LIVER: 9.6 g
  ALP: 1737 IU/L
  AST: 82.8 IU/L
  CRE: 0.2 mg/dL
  DBIL: 0.004 mg/dL
  GLC: 184 mg/dL
  IP: 8.3 mg/dL
  K: 4.1 meq/L
  LDH: 215.6 IU/L
  Na: 143.2 meq/L
  PL: 163.8 mg/dL
  RALB: 4.1 g/dL
  TBIL: 0.012 mg/dL
  TC: 86.8 mg/dL
  TP: 5.4 g/dL
  gamma-GTP: 0.8 IU/L
[2]
  Bas: 0%
  Eos: 0.4%
  Lym: 80.4%
  MCHC: 33.1%
  MCV: 63.3 fL
  Mono: 3%
  Neu: 15.2%
  RBC: 615.4 x10_4/ul
  Ret: 11.2%
  WBC: 112.4 x10_2/uL
  KIDNEY_L: 0.8 g
  KIDNEY_R: 0.8 g
  KIDNEY_TOTAL: 1.7 g
  LIVER: 8.7 g
  ALP: 1529.4 IU/L
  AST: 72.4 IU/L
  CRE: 0.2 mg/dL
  DBIL: 0.006 mg/dL
  GLC: 175.8 mg/dL
  IP: 9.6 mg/dL
  K: 4.2 meq/L
  Na: 139.7 meq/L
  PL: 152.4 mg/dL
  RALB: 4 g/dL
  TBIL: 0.022 mg/dL
  TC: 86.4 mg/dL
  TP: 5.5 g/dL
  gamma-GTP: 0.9 IU/L
[3]
  Bas: 0%
  Eos: 0.8%
  Lym: 76.4%
  MCHC: 33.4%
  MCV: 62.3 fL
  Mono: 2.2%
  Neu: 20.4%
  RBC: 617 x10_4/ul
  Ret: 9%
  WBC: 86 x10_2/uL
  KIDNEY_L: 0.9 g
  KIDNEY_R: 0.9 g
  KIDNEY_TOTAL: 1.8 g
  LIVER: 8.1 g
  ALP: 1372 IU/L
  AST: 76.6 IU/L
  CRE: 0.2 mg/dL
  DBIL: 0.01 mg/dL
  GLC: 170 mg/dL
  IP: 9.5 mg/dL
  K: 3.9 meq/L
  LDH: 175 IU/L
  Na: 140.3 meq/L
  PL: 140.2 mg/dL
  RALB: 4.1 g/dL
  TBIL: 0.016 mg/dL
  TC: 81.8 mg/dL
  TP: 5.5 g/dL
  gamma-GTP: 0.8 IU/L
[4]
  Bas: 0%
  Eos: 1%
  Lym: 81.4%
  MCHC: 32.9%
  MCV: 65.5 fL
  Mono: 2.4%
  Neu: 14.6%
  RBC: 607.4 x10_4/ul
  Ret: 9.3%
  WBC: 100.4 x10_2/uL
  KIDNEY_L: 0.9 g
  KIDNEY_R: 0.9 g
  KIDNEY_TOTAL: 1.8 g
  LIVER: 10 g
  ALP: 1682.4 IU/L
  AST: 68.2 IU/L
  CRE: 0.2 mg/dL
  DBIL: 0 mg/dL
  GLC: 199.8 mg/dL
  IP: 7.8 mg/dL
  K: 4.2 meq/L
  LDH: 195.2 IU/L
  Na: 142.7 meq/L
  PL: 149 mg/dL
  RALB: 4.1 g/dL
  TBIL: 0.004 mg/dL
  TC: 75.2 mg/dL
  TP: 5.8 g/dL
  gamma-GTP: 1 IU/L
60 mg/kg, 3 h, dose level Low
  Bas: 0%
  Eos: 1%
  Lym: 73.4%
  MCHC: 32.7%
  MCV: 63.2 fL
  Mono: 3%
  Neu: 21.6%
  RBC: 603 x10_4/ul
  Ret: 9.5%
  WBC: 109.9 x10_2/uL
  KIDNEY_L: 0.9 g
  KIDNEY_R: 0.9 g
  KIDNEY_TOTAL: 1.7 g
  LIVER: 9.3 g
  ALP: 1755.4 IU/L
  AST: 81.6 IU/L
  CRE: 0.2 mg/dL
  DBIL: 0.008 mg/dL
  GLC: 187 mg/dL
  IP: 8.6 mg/dL
  K: 4.1 meq/L
  LDH: 243.6 IU/L
  Na: 142.4 meq/L
  PL: 150.2 mg/dL
  RALB: 4 g/dL
  TBIL: 0.03 mg/dL
  TC: 82.8 mg/dL
  TP: 5.5 g/dL
  gamma-GTP: 0.8 IU/L
60 mg/kg, 6 h, dose level Low
  Bas: 0%
  Eos: 0.8%
  Lym: 80.6%
  MCHC: 32.8%
  MCV: 63.4 fL
  Mono: 2%
  Neu: 16.2%
  RBC: 618.6 x10_4/ul
  Ret: 9.5%
  WBC: 104.6 x10_2/uL
  KIDNEY_L: 0.9 g
  KIDNEY_R: 0.9 g
  KIDNEY_TOTAL: 1.8 g
  LIVER: 8.4 g
  ALP: 1520 IU/L
  AST: 77.6 IU/L
  CRE: 0.2 mg/dL
  DBIL: 0.008 mg/dL
  GLC: 190.8 mg/dL
  IP: 9.4 mg/dL
  K: 4.2 meq/L
  LDH: 238 IU/L
  Na: 140.7 meq/L
  PL: 152.8 mg/dL
  RALB: 4 g/dL
  TBIL: 0.03 mg/dL
  TC: 82.4 mg/dL
  TP: 5.4 g/dL
  gamma-GTP: 0.7 IU/L
60 mg/kg, 9 h, dose level Low
  Bas: 0%
  Eos: 1%
  Lym: 73.8%
  MCHC: 33%
  MCV: 63.2 fL
  Mono: 2.2%
  Neu: 22.6%
  RBC: 613.6 x10_4/ul
  Ret: 8.7%
  WBC: 94.3 x10_2/uL
  KIDNEY_L: 0.8 g
  KIDNEY_R: 0.9 g
  KIDNEY_TOTAL: 1.7 g
  LIVER: 8.2 g
  ALP: 1712.2 IU/L
  AST: 75.4 IU/L
  CRE: 0.2 mg/dL
  DBIL: 0.006 mg/dL
  GLC: 183.2 mg/dL
  IP: 9.4 mg/dL
  K: 4 meq/L
  LDH: 176.4 IU/L
  Na: 140 meq/L
  PL: 137.4 mg/dL
  RALB: 4 g/dL
  TBIL: 0.016 mg/dL
  TC: 77.8 mg/dL
  TP: 5.5 g/dL
  gamma-GTP: 0.7 IU/L
60 mg/kg, 24 h, dose level Low
  Bas: 0%
  Eos: 0.6%
  Lym: 85%
  MCHC: 33.1%
  MCV: 64.4 fL
  Mono: 2.4%
  Neu: 11.6%
  RBC: 590.4 x10_4/ul
  Ret: 8.2%
  WBC: 87.7 x10_2/uL
  KIDNEY_L: 0.9 g
  KIDNEY_R: 0.9 g
  KIDNEY_TOTAL: 1.8 g
  LIVER: 10 g
  ALP: 1709.8 IU/L
  AST: 77.2 IU/L
  CRE: 0.2 mg/dL
  DBIL: 0.002 mg/dL
  GLC: 186.4 mg/dL
  IP: 7.6 mg/dL
  K: 4 meq/L
  LDH: 197 IU/L
  Na: 142.7 meq/L
  PL: 162.8 mg/dL
  RALB: 4.1 g/dL
  TBIL: 0.006 mg/dL
  TC: 85.4 mg/dL
  TP: 5.7 g/dL
